29 compounds from patent US20060063784A1, “Method of using substituted pyrazolo [1,5-a] pyrimidines” (priority 2004, published 2006) can be followed below.

In one test the test system is LoVo Colon cell line. Description: Cytotoxicity assay using LoVo colon cell line, SRB. The format is cell-based. The following applies: read-out: Inhibition of LoVo. Put shortly:
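LoVo cells (4000/well, RPMI 1640 with 10% FBS, 37 °C, 7% CO2) seeded overnight, then exposed 4 days to serial dilutions spanning 5 pM-20 μM or 170 pg/ml-10 μg/ml. Survival by SRB staining; IC50 from curves relative to untreated controls.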

In test [1] the test system is 80S14 (p21-deficient) cells. Description: Cytotoxicity assay using isogenic cell lines: IC50 in 80S14 (p21-deficient) cells, SRB. It is filed as cell-based, human. In short, it runs like this: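 80S14 (p21-deficient) cells seeded at 12,000 cells/well overnight, then exposed 5 days at 37 °C to serial dilutions (5 pM–50 μM or 170 pg/ml–10 μg/ml). TCA-fixed, sulforhodamine B-stained, absorbance at 560 nm; IC50 taken from cytotoxicity curves versus untreated controls.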

[2] abbreviates: Homo sapiens, 96 h, Cellular activity in LoVo cell, 4 days incubation, SRB.
The mark [3] stands for this setting: Homo sapiens, 120 h, 80S14 (p21-deficient) cells, 5 days, SRB, class symbols, read-out: IC50 for 80S14.
Setting [4] is: Homo sapiens, 96 h, LoVo colon cells, 4 days incubation, SRB.
The mark [5] stands for this setting: Homo sapiens, 120 h, 80S14 p21-deficient cells, 5 days incubation, SRB, read-out: IC50 for 80SI4.

Read-outs that look alike come from different tables or passages of the source. Where only a bound is given, the exact number is not on record here.

Consider `O=C(CC1CCCC1)Nc1cccc(-c2ccnc3c(C(=O)c4ccco4)cnn23)c1` [Example 303, 2-Cyclopentyl-N-{3-[3-(2-furoyl)pyrazolo[1,5-a]pyrimidin-7-yl]phenyl}acetamide], for which the IC50 is below 0.1 µM in the test with LoVo Colon cell line (setting [2]) and below 1 µM in test [1] (setting [3]).
Taken in the same sequence, the figures for `CC(C)CC(=O)Nc1cccc(-c2ccnc3c(-c4ccc(Cl)c(Cl)c4)cnn23)c1` [Example 474, N-{3-[3-(3,4-Dichlorophenyl)pyrazolo[1,5-a]pyrimidin-7-yl]phenyl}-3-methylbutanamide] were 1 to 20 µM and 10 to 50 µM.
For `O=C(NCC1CCCO1)Nc1cccc(-c2ccnc3c(C(=O)c4cccs4)cnn23)c1` (stereo not shown) [Example 163, N-(tetrahydrofuran-2-ylmethyl)-N′-{3-[3-(thien-2-ylcarbonyl)pyrazolo[1,5-a]pyrimidin-7-yl]phenyl}urea], the IC50 was 0.1 to 1 µM in the test with LoVo Colon cell line (setting [4]) and below 1 µM in test [1] (setting [5]).
Turning to `O=C(CCc1ccncc1)Nc1cccc(-c2ccnc3c(C(=O)c4cccs4)cnn23)c1` [Example 440, 3-Pyridin-4-yl-N-{3-[3-(thien-2-ylcarbonyl)pyrazolo[1,5-a]pyrimidin-7-yl]phenyl}propanamide], the IC50 was in the range of 0.1 to 1 µM with LoVo Colon cell line (setting [2]) and 1 to 10 µM in test [1] (setting [3]).
The like results for `CCN(CC)Cc1ccc(-c2cccc(-c3ccnc4c(C(=O)c5cccs5)cnn34)c2)cc1` [Example 462, (7-{4′-[(Diethylamino)methyl]-1,1′-biphenyl-3-yl}pyrazolo[1,5-a]pyrimidin-3-yl)(thien-2-yl)methanone] were, in that order, 0.1 to 1 µM and 1 to 10 µM.
The like results for `O=C(c1cccs1)c1cnn2c(-c3cccc(-c4nnn(Cc5ccncc5)n4)c3)ccnc12` [Example 510, (7-{3-[2-(Pyridin-4-ylmethyl)-2H-tetraazol-5-yl]phenyl}pyrazolo[1,5-a]pyrimidin-3-yl)(thien-2-yl)methanone] were, in that order, below 0.1 µM and below 1 µM.
Take `Cc1cnc2c(C(=O)c3cccs3)cnn2c1-c1cccc(NC(=O)OCC(C)(C)C)c1` [Example 214, neopentyl 3-[6-methyl-3-(thien-2-ylcarbonyl)pyrazolo[1,5-a]pyrimidin-7-yl]phenylcarbamate]: the IC50 in the test with LoVo Colon cell line (setting [4]) was in the range of 1 to 2 µM; in test [1] (setting [5]) it was 10 to 50 µM.
The like results for `O=C(Nc1cccc(-c2ccnc3c(C(=O)c4cccs4)cnn23)c1)OC1C=CCCC1` (stereo not shown) [Example 173, cyclohex-2-en-1-yl 3-[3-(thien-2-ylcarbonyl)pyrazolo[1,5-a]pyrimidin-7-yl]phenylcarbamate] were, in that order, below 0.1 µM and below 1 µM.
Regarding `CC(CC(=O)Nc1cc(-c2ccnc3c(C(=O)c4cccs4)cnn23)ccc1F)C(F)(F)F` (stereo not shown) [Example 356, 4,4,4-Trifluoro-N-{2-fluoro-5-[3-(thien-2-ylcarbonyl)pyrazolo[1,5-a]pyrimidin-7-yl]phenyl}-3-methylbutanamide], the IC50 in the test with LoVo Colon cell line (setting [2]) was below 0.1 µM; in test [1] (setting [3]), below 1 µM.
The like results for `CC(C)OC(=O)Nc1cc(-c2ccnc3c(C(=O)c4cccs4)cnn23)ccc1N(C)C` [Example 348, Isopropyl 2-(dimethylamino)-5-[3-(thien-2-ylcarbonyl)pyrazolo[1,5-a]pyrimidin-7-yl]phenylcarbamate] were, in that order, 0.1 to 1 µM and 1 to 10 µM.
In the case of `O=C(c1cccs1)c1cnn2c(-c3cccc(NCC=C(c4ccccc4)c4ccccc4)c3)ccnc12` [Example 399, (7-{3-[(3,3-Diphenylprop-2-enyl)amino]phenyl}pyrazolo[1,5-a]pyrimidin-3-yl)(thien-2-yl)methanone], the IC50 was 1 to 20 µM in the test on LoVo Colon cell line (setting [2]) and 10 to 50 µM in test [1] (setting [3]).
Taken in the same sequence, the figures for `Cc1cc(C)cc(-c2cnn3c(-c4cccc(-c5nnn[nH]5)c4)ccnc23)c1` [Example 491, 3-(3,5-Dimethylphenyl)-7-[3-(1H-tetraazol-5-yl)phenyl]pyrazolo[1,5-a]pyrimidine] were 1 to 20 µM and 1 to 10 µM.
`O=C(Nc1ccc(Cl)c(-c2ccnc3c(C(=O)c4cccs4)cnn23)c1)c1ccccc1` [Example 341, N-{4-Chloro-3-[3-(thien-2-ylcarbonyl)pyrazolo[1,5-a]pyrimidin-7-yl]phenyl}benzamide]: the IC50 in the test with LoVo Colon cell line (setting [2]) lay in the range of 0.1 to 1 µM; in test [1] (setting [3]), 1 to 10 µM.
Taken in the same sequence, the figures for `CC(C)Cn1nnc(-c2cccc(-c3ccnc4c(C(=O)c5cccs5)cnn34)c2)n1` [Example 504, {7-[3-(2-Isobutyl-2H-tetraazol-5-yl)phenyl]pyrazolo[1,5-a]pyrimidin-3-yl}(thien-2-yl)methanone] were 0.1 to 1 µM and below 1 µM.
Taken in the same sequence, the figures for `Nc1cccc(-c2cccc(-c3ccnc4c(C(=O)c5cccs5)cnn34)c2)c1` [Example 451, [7-(3′-Amino-1,1′-biphenyl-3-yl)pyrazolo[1,5-a]pyrimidin-3-yl](thien-2-yl)methanone] were 0.1 to 1 µM and below 1 µM.
As for `CCCOC(=O)Nc1cccc(-c2c(C)cnc3c(C(=O)c4cccs4)cnn23)c1` [Example 208, propyl 3-[6-methyl-3-(thien-2-ylcarbonyl)pyrazolo[1,5-a]pyrimidin-7-yl]phenylcarbamate], the figures for the IC50 (in the test with LoVo Colon cell line (setting [4]); in test [1] (setting [5])) were 0.1 to 1 µM and 10 to 50 µM, respectively.
Turning to `O=C(Nc1cc(-c2ccnc3c(C(=O)c4cccs4)cnn23)ccc1F)c1ccncc1` [Example 388, N-{2-Fluoro-5-[3-(thien-2-ylcarbonyl)pyrazolo[1,5-a]pyrimidin-7-yl]phenyl}isonicotinamide], the IC50 with LoVo Colon cell line (setting [2]) is below 0.1 µM; in test [1] (setting [3]) it was below 1 µM.
The like results for `O=C(c1cccs1)c1cnn2c(-c3cccc(-c4nnn[nH]4)c3)ccnc12` [Example 501, {7-[3-(1H-Tetraazol-5-yl)phenyl]pyrazolo[1,5-a]pyrimidin-3-yl}(thien-2-yl)methanone] were, in that order, 1 to 20 µM and 10 to 50 µM.
Take `CC(C)OC(=O)Nc1ccc(-c2ccnc3c(C(=O)c4cccs4)cnn23)s1` [Example 344, Isopropyl 5-[3-(thien-2-ylcarbonyl)pyrazolo[1,5-a]pyrimidin-7-yl]thien-2-ylcarbamate]: the IC50 with LoVo Colon cell line (setting [2]) was in the range of 1 to 20 µM; in test [1] (setting [3]) it was 1 to 10 µM.
Taken in the same sequence, the figures for `COc1ccc(-c2cnn3c(-c4cccc(NC(=O)CC(C)C)c4)ccnc23)cc1` [Example 470, N-{3-[3-(4-Methoxyphenyl)pyrazolo[1,5-a]pyrimidin-7-yl]phenyl}-3-methylbutanamide] were 1 to 20 µM and 10 to 50 µM.
Taken in the same sequence, the figures for `O=C(Nc1cccc(-c2ccnc3c(C(=O)c4cccs4)cnn23)c1)c1cn[nH]c1` [Example 441, N-{3-[3-(Thien-2-ylcarbonyl)pyrazolo[1,5-a]pyrimidin-7-yl]phenyl}-1H-pyrazole-4-carboxamide] were 1 to 20 µM and 10 to 50 µM.
On to “N-{3-[6-methyl-3-(thien-2-ylcarbonyl)pyrazolo[1,5-a]pyrimidin-7-yl]phenyl}cycopropanecarboxamide [Example 217]”, for which the IC50 with LoVo Colon cell line (LoVo colon cells, 4 days incubation, SRB) was below 0.1 µM; in test [1] (80S14 p21-deficient cells, 5 days incubation, SRB, read-out: IC50 for 80SI4), 10 to 50 µM.
For `O=C(Nc1cc(-c2ccnc3c(C(=O)c4cccs4)cnn23)ccc1F)OCCCl` [Example 381, 2-Chloroethyl 2-fluoro-5-[3-(thien-2-ylcarbonyl)pyrazolo[1,5-a]pyrimidin-7-yl]phenylcarbamate], the IC50 with LoVo Colon cell line (Homo sapiens, LoVo, 96 h) is below 0.1 µM; in test [1] (Homo sapiens, 80S14, 120 h, read-out: IC50 for 80S14 (uM)) it was below 1 µM.
In the case of `CC(C)=CCOC(=O)Nc1cccc(-c2ccnc3c(C(=O)c4cccs4)cnn23)c1` [Example 177, 3-methylbut-2-enyl 3-[3-(thien-2-ylcarbonyl)pyrazolo[1,5-a]pyrimidin-7-yl]phenylcarbamate], the IC50 in the test on LoVo Colon cell line (setting [4]) is below 0.1 µM; in test [1] (setting [5]) it was 1 to 10 µM.
In the case of `CCCCn1nnc(-c2cccc(-c3ccnc4c(C(=O)c5cccs5)cnn34)c2)n1` [Example 506, {7-[3-(2-Butyl-2H-tetraazol-5-yl)phenyl]pyrazolo[1,5-a]pyrimidin-3-yl) (thien-2-yl)methanone], the values for the IC50 (in the test on LoVo Colon cell line (setting [2]); in test [1] (setting [3])) were below 0.1 µM and below 1 µM, respectively.
For `COc1ccccc1C(=O)Nc1cccc(-c2ccnc3c(C(=O)c4cccs4)cnn23)c1` [Example 93, 2-methoxy-N-{3-[3-(thien-2-ylcarbonyl)pyrazolo[1,5-a]pyrimidin-7-yl]phenyl}benzamide], the results for the IC50 (with LoVo Colon cell line (setting [4]); in test [1] (setting [5])) were below 0.1 µM and below 1 µM, respectively.
`CN(C)c1ccc(-c2ccnc3c(C(=O)c4cccs4)cnn23)cc1NC(=O)c1ccccc1Cl` [Example 421, 2-Chloro-N-{2-(dimethylamino)-5-[3-(thien-2-ylcarbonyl)pyrazolo[1,5-a]pyrimidin-7-yl]phenyl}benzamide]: the IC50 with LoVo Colon cell line (setting [2]) is 0.1 to 1 µM; in test [1] (setting [3]) it was below 1 µM.
Taken in the same sequence, the figures for `CCn1nnc(-c2cccc(-c3ccnc4c(C(=O)c5cccs5)cnn34)c2)n1` [Example 502, {7-[3-(2-Ethyl-2H-tetraazol-5-yl)phenyl]pyrazolo[1,5-a]pyrimidin-3-yl}(thien-2-yl)methanone] were 0.1 to 1 µM and 1 to 10 µM.
As for `CC(CNc1cccc(-c2ccnc3c(C(=O)c4cccs4)cnn23)c1)c1ccccc1` (stereo not shown) [Example 378, (7-{3-[(2-Phenylpropyl)amino]phenyl}pyrazolo[1,5-a]pyrimidin-3-yl)(thien-2-yl)methanone], the IC50 in the test with LoVo Colon cell line (setting [2]) was 1 to 20 µM; in test [1] (setting [3]), 1 to 10 µM.
